# According to patent US11786542B2, “Methods for enhancing cytotoxic cancer therapy through modulation of purine biosynthesis pathways” (NORTHWESTERN UNIVERSITY, priority 2019, dated 2023):
# Entries after “also recorded” stand apart in the source; their conditions may differ.
# Columns and labels:
# [1] = system: IMPDH; conditions: cited from earlier work
# [2] = system: orthotopic GBM43; assay: Orthotopic PDX GBM mouse model, endpoint survival, IMPDH inhibitor with TMZ; assay type: in vivo, Mice; conditions: for survival benefits in vivo and vitro models: mouse
# Method: (§1) FIG. 10A-10C. […] A) Pictorial representation of cell viability post therapy. B) Cell viability measured by trypan blue exclusion method. C) Mice with orthotopic GBM43 treated with vehicle DMSO, TMZ 2.5 mg/kg for 5 days, MMF (20 mg/kg for 4 days and in combination and monitored by endpoint survival.
# (§2) Glioblastoma, a universally lethal primary brain tumor, harnesses cellular plasticity to drive therapeutic adaptation. Critical factors in developing this plasticity are histone modifiers such as Polycomb Repressor Complex 2 protein EZH2. […] Concurrently, we observed an increase in H3K27ac at the transcription start site of ARL13B as well as a lack of H3K27 tri-methylation, EZH2's canonical histone mark. Based on this we hypothesize that EZH2 could be non-canonically regulating ARL13B to allow for cellular plasticity and ultimately drive therapeutic adaptation. […] Searching for a mechanism behind this survival benefit, we preformed mass spectrometry on an ARL13B pulldown in a patient derived xenograft line during TMZ therapy and identified inosine monophosphate dehydrogenase 2 (IMPDH2), the rate-limiting enzyme in de-novo guanine nucleotide biosynthesis, as a significant binding partner of ARL13B during TMZ chemotherapy (p-value<0.0001). Probing this novel interaction further we examined the de-novo and salvage purine biosynthesis pathways using radiolabeled carbon tracing experiments. […] This synthesis shift forces cells to uptake and incorporate purines that have been alkylated by TMZ therapy which increases DNA double strand breaks and ultimately impairs therapeutic adaptation.
# [3] = system: EAE and stroke; conditions: cited from earlier work
# [4] = in vivo; cited from earlier work
# [5] = system: PDX GBM lines; assay: Cell viability of PDX GBM lines post therapy, trypan blue exclusion; assay type: cell-based; conditions: CellCept combined with TMZ
# Method: as §1
# [6] = system: GBM flank model; assay: GBM flank model, tumor growth, EZH2 inhibitor plus TMZ; assay type: in vivo
# Source text: FIG. 1A-1D. ARL13B is a downstream target for EZH2 non-canonical function. A) EZH2 expression is elevated during (day 3-D3) and post (D18) TMZ therapy. Therapy resistant glioma stem cell (CD133+) express high EZH2 post therapy (left). […] C) To examine the role of non-canonical function in TMZ resistance GBM43 (proneural) and GBM6 (Classical) PDX GBM treated with TMZ or TMZ+EZH2 inhibitor and subject to RNAseq analysis. […] We identified ARL13B as the top hit from this screen. D) shRNA mediated knockdown of EZH2 leads to downregulation of ARL13B.
# 2.1. […] One such epigenetic regulator is the Polycomb Repressor Complex 2 (PRC2), a critical family protein that is essential for maintaining the self-renewal ability of adult and embryonic stem cells^22, 23. This complex is involved in transcription silencing via chromatin compaction by catalyzing the methylation of the histone H3 at lysine 27. The catalytic subunit of the PRC2 complex, Enhancer Of Zeste 2 (EZH2), has been linked to aggressive progression of multiple cancers, including GBMs^24 25. The function of EZH2 is closely related to the cancer stem cell (CSC) phenotype, mesenchymal transition and radioresistance, which is associated with post-surgery relapse of GBM^24-26. However, its role in promoting chemoresistance properties in GBM is yet to be investigated. […]
# [7] = Blood-brain barrier crossing of the EZH2 inhibitor, orthotopic PDX model; assay type: in vivo
# Source text: 2.1. […] One such epigenetic regulator is the Polycomb Repressor Complex 2 (PRC2), a critical family protein that is essential for maintaining the self-renewal ability of adult and embryonic stem cells^22, 23. This complex is involved in transcription silencing via chromatin compaction by catalyzing the methylation of the histone H3 at lysine 27. The catalytic subunit of the PRC2 complex, Enhancer Of Zeste 2 (EZH2), has been linked to aggressive progression of multiple cancers, including GBMs^24 25. The function of EZH2 is closely related to the cancer stem cell (CSC) phenotype, mesenchymal transition and radioresistance, which is associated with post-surgery relapse of GBM^24-26. However, its role in promoting chemoresistance properties in GBM is yet to be investigated. To this end, we have examined the role of the EZH2-PRC2 complex in promoting TMZ resistance.
# [8] = system: ARL13B knocked out GBM lines; assay: DNA damage by H2X foci in ARL13B knockout/knockdown GBM cells treated with TMZ; assay type: cell-based; conditions: ARL13B knockout/knockdown cells vs control cells, both exposed to TMZ
# Method: (§3) FIG. 5A-5D. Removal of ARL13B sensitizes GBM to TMZ therapy. […] B) Quantitative measure of H2X foci of different conditions counted in 100 cells. C) and D) shRNA mediated knockdown of ARL13B PDX lines were implanted in the nu/nu mice intracranially. After tumor establishment (7 days post implantation measured by BLI) animals were treated with suboptimal dose of TMZ (2.5 mg/kg) for 5 consecutive days. Animals were monitored for endpoint survival. C) GBMS PDX which is a mesenchymal subtype and D) GBM6, a classical subtype.
# Creation of this alkylated purine causes a base pair mismatch in DNA (G-T) which results in DNA damage and cell cycle arrest and apoptosis (PMID: 15322239). Because of the nature of temozolomide chemotherapy-induced DNA damage, we chose to examine whether or not salvage pathway synthesis carried an implicit sensitivity to this alkylating chemotherapy. […] However, it did decrease the utilization of the salvage pathway by roughly 50%. Next, we subjected our ARL13B knockout cells to a standard dose of Temozolomide chemotherapy and checked whether they had more DNA double-stranded breaks by utilizing gamma h2ax foci counting. […]
# 2.6. […] After tumor engraftment animals were treated with vehicle control or TMZ (2.5 mg/kg) for 5 consecutive days and animals were monitored by endpoint survival. […]
# [9] = system: IMPDH2; assay: IMPDH2 enzymatic activity, formazin reduction assay; assay type: biochemical; conditions: over 8 days of TMZ exposure (p<0.001)
# Source text: as §2
# [10] = system: ARL13B knockdown PDX GBM (GBM5, GBM6); assay: Intracranial ARL13B knockdown PDX xenografts treated with TMZ, endpoint survival; assay type: in vivo, nu/nu mice; conditions: TMZ 2.5 mg/kg for 5 days
# Method: as §3
# 2.6. ARL13B KD enhances the therapeutic efficacy of TMZ both in vitro and in vivo: The monofunctional DNA-alkylating agent TMZ is a commonly used chemotherapeutic drug and the gold standard of treatment for GBM. Although the activity of the DNA repair enzyme O6-methylguanine-DNA methyltransferase (MGMT) has been identified as the critical modulator to determine the GBM sensitivity to TMZ, all GBMs, even those with MGMT inactivation, eventually stop responding to TMZ. This begs question whether an alternative mechanism of resistance may be involved in GBM. The anti-GBM activity of TMZ is predominately provoked by O6-methylguanine-DNA adducts. […] After tumor engraftment animals were treated with vehicle control or TMZ (2.5 mg/kg) for 5 consecutive days and animals were monitored by endpoint survival. […]
# [11] = system: salvage pathway; assay: [3H]-hypoxanthine isotope tracing, salvage purine biosynthesis; assay type: cell-based; conditions: cells with endogenous ARL13B; listed as temozolomide
# Method: (§4) FIG. 4A-4E. IMPDH2-ARL13B interaction during TMZ therapy influences purine biosynthesis. A) Schematic diagram of purine biosynthesis. Isotope tracing analysis performed with ^14C glycine for de novo and ^3H hypoxanthine for salvage pathway. […] D)^14C glycine incorporation via de novo synthesis of the DNA and RNA with or without TMZ therapy in the presence and absence of ARL13B. U251 GBM cells were pulsed for 6 h with ^14C glycine, DNA and RNA were isolated, and ^14C incorporation was measured by […]. E) ^3H hypoxanthine incorporation via salvage pathway.
# 2.5. The ARL13B-IMPDH2 interaction during TMZ therapy alters the path to purine biosynthesis: IMPDH controls the gateway to purine nucleotides, by analyzing the rate-limiting reaction of de novo GTP biosynthesis at the inosine monophosphate (IMP) metabolic branch point^36 (FIG. 4A). This critical reaction appears to be present in every organism. Alternatively, purine bases, released by hydrolytic degradation of nucleic acids and nucleotides, can be salvaged and recycled. This is an energy-saving pathway for purine biosynthesis, and its inefficiency can result in many pathological conditions including Lesch-Nyhan syndrome^37. In cancer, rapid cell division results in a high demand for purine nucleotides that generally cannot be sustained by salvage pathways, which may explain the importance of IMPDH in cancer^14, 38. […]
# [12] = system: Glioblastoma (GBM); conditions: combined with radiotherapy after surgery; cited from earlier work
# [13] = system: de novo pathway; assay: [14C]-glycine isotope tracing, de novo purine biosynthesis; assay type: cell-based; conditions: for de novo pathway activity during TMZ therapy: cells with endogenous ARL13B
# Method: as §4
# 2.5. The ARL13B-IMPDH2 interaction during TMZ therapy alters the path to purine biosynthesis: IMPDH controls the gateway to purine nucleotides, by analyzing the rate-limiting reaction of de novo GTP biosynthesis at the inosine monophosphate (IMP) metabolic branch point^36 (FIG. 4A). This critical reaction appears to be present in every organism. Alternatively, purine bases, released by hydrolytic degradation of nucleic acids and nucleotides, can be salvaged and recycled. This is an energy-saving pathway for purine biosynthesis, and its inefficiency can result in many pathological conditions including Lesch-Nyhan syndrome^37. In cancer, rapid cell division results in a high demand for purine nucleotides that generally cannot be sustained by salvage pathways, which may explain the importance of IMPDH in cancer^14, 38. This information, combined with our finding of a direct interaction between ARL13B and IMPDH2 during TMZ therapy, allows us to postulate that such an interaction may be playing a role in regulation of purine biosynthesis pathway. To investigate further, we first performed [^14C]-glycine (de novo) and [^3H]-hypoxanthine (salvage) pulse-chase study during therapy, which allowed us to measure the activity of specific purine biosynthesis pathways^39 (FIG. 4A). […] Moreover, removal or ARL13B enhanced the salvage activity about 5-fold (FIG. 4E, p<0.0005). Based on this, we conclude that ARL13B may act as a negative regulator for the salvage pathway and is play a role in therapy-induced switch of the purine biosynthesis.
# [14] = patients; cited from earlier work
structure (smiles),measurement,setting,value
CC[C@H](CC#N)OC(=O)N[C@@H](C)c1cccc(NC(=O)Nc2ccc(-c3cnco3)c(OC)c2)c1 [AVN944],IMPDH activity as compared to CellCept,[1],enhanced IMPDH activity as compared to CellCept
"COc1c(C)c2c(c(O)c1C/C=C(\C)CCC(=O)OCCN1CCOCC1)C(=O)OC2 [CellCept, mycophenolic mofetil]","therapeutic efficacy of TMZ-based chemotherapy, animal model","[2]; CellCept combined with TMZ, PDX model (FIG. 10)",corporation between CellCept and TMZ; also recorded: significantly improved the therapeutic efficacy of TMZ-based anti-GBM chemotherapy
same,survival benefits in vivo and vitro models,[2],robust survival benefits
same,median survival,"[2]; orthotopic PDX mouse model, only when in combination with TMZ (p<0.01)",significantly extended median survival
same,neuroprotection against inflammatory conditions,[3],promoted neuroprotection
same,crossing of the blood-brain barrier (BBB),[4],ability to cross the blood-brain barrier
same,sensitization to TMZ therapy in vitro,[5],sensitizes PDX GBM lines to TMZ therapy; also recorded: significantly improved the therapeutic efficacy of TMZ-based anti-GBM chemotherapy
CCCc1cc(C)[nH]c(=O)c1CNC(=O)c1cc(-c2ccc(N3CCN(C(C)C)CC3)nc2)cc2c1cnn2C(C)C [EZH2 inhibitor],tumor growth / therapeutic efficacy of TMZ in flank model,[6],can block the tumor growth; also recorded: significantly enhanced the therapeutic efficacy of TMZ
same,crossing of the blood-brain barrier,[7],failed to cross the blood-brain barrier
"NC(=O)c1ncn([C@@H]2O[C@H](CO)[C@@H](O)[C@H]2O)c1O [Mizoribine, mizoribine]",survival benefits in vivo and vitro models,[2],robust survival benefits
"Cn1nnc2c(C(N)=O)ncn2c1=O [TMZ, 3,4-dihydro-3methyl-4-oxoimidazo[5,1-d]-1,2,3,5-tetrazine-8-carboxamide]",DNA damage / double-strand breaks (H2X foci),[8],robust increase in DNA double-strand breaks; also recorded: significantly elevated DNA damage
same,DNA damage / double-strand breaks (H2X foci),[8]; listed as Temozolomide,significantly more foci
same,IMPDH2 enzymatic activity,[9],decrease in activity
same,improvement in overall survival compared to control,"[10]; classical subtype GBM6, ARL13B KD",39%
same,animals that did not develop any tumor,"[10]; mesenchymal subtype, ARL13B KO GBM",80%
same,decrease of salvage pathway activity during TMZ therapy,[11],roughly 50%
same,improvement of overall survival time,[12],4-6 months
same,decrease of de novo pathway usage in a TMZ specific manner,[13]; ARL13B knockdown / removal,about 50%
same,de novo pathway activity in a TMZ-specific manner,[13]; ARL13B knocked-out cells,inhibited in a TMZ-specific manner; also recorded: reduced significantly in a TMZ-specific manner
same,de novo pathway activity during TMZ therapy,[13],remained unchanged; also recorded: did not alter the de novo synthesis pathway
same,de novo pathway activity during TMZ therapy,[13]; listed as temozolomide,did not statistically change
same,peak cerebral spinal fluid and serum concentrations,[14],50 µM
